Results from patent US20240398806A1, “Compositions For and Methods of Treating and/or Preventing Pain” (Duke University, priority 2021, published 2024).

How the values were obtained:
Pharmacokinetics in rat = assay type: in vivo
[1] = Central blood pressure (systolic ventricular pressure) in anesthetized mice; assay type: in vivo, C57BL/6J mice; conditions: 12 mg/kg, i.p.
Method: (§1) SBI-553 treatment was not associated with hypothermia or hypotension. In addition to modulating motivated behavior. […] SBI-553 (at 2-30 mg/kg, i.p.) had no effect on core body temperature (FIG. 6B). […] This was an effect not secondary to hypothermia as body temperature was maintained by thermal support. These findings indicate that a Gq protein-dependent mechanism mediates NTSR1-associated side effects and is not engaged by SBI-553. Consistent with an antagonist like action at NTSR1.

[2] = Whole body plethysmography (respiratory depression); assay type: in vivo, mice
Text: Third, plethysmography is used to examine whether SBI-553 and IND ready analog SBI-810 can be administered to mice intraperitoneally, intravenously, or intrathecally without respiratory depression. Using plethysmography determine whether SBI-553 and IND ready analog SBI-810 can be administered to mice (e.g., C57BL6J) intraperitonially, intravenously, or intrathecally without respiratory depression. […] The “Buxco FinePointe Whole Body Plethysmography 4-Site System” was used to assess whether any IND analogs like the SBI-810 in the same system following intraperitoneal, intravenous, or intrathecal administration. Here. C57BL6J mice are assessed using UWBP, a technique that provides a, non-invasive, quantitative means to assess and analyze respiratory parameters. This will include tidal volume, minute volume, inspiratory duty cycle, inspiratory flow rate and the ratio of inspiration time to expiration time using a repeated measures approach to determine lung function on the same animal under multiple treatment conditions.

[3] = Rotarod test of motor function; conditions: i.t. injection
[4] = Pharmacokinetics in mouse; assay type: in vivo
[5] = Plantar incision-induced post-operative pain (mechanical allodynia) in WT and Arrb2 KO mice; assay type: in vivo; conditions: 12 mg/kg IP
[6] = Cocaine- and methamphetamine-induced hyperlocomotion, open field; assay type: in vivo, mice (C57BL/6J background); conditions: 12 mg/kg i.p., WT mice
Method: (§2) Once stable performance was achieved, self-administration was assessed once daily in 60 min sessions. Animals received vehicle (saline, i.p.) or SBI-553 (2, 6, or 12 mg/kg, i.p.) immediately prior to placement into self-administration chambers with access to cocaine at doses of 0.1, 0.3, 0.5, or 1 mg/kg/infusion. FIG. 7B-FIG. 7C show cocaine-induced and methamphetamine-induced hyperlocomotion.
Open-field testing is used to analyze animal movement. The Accuscan open field (Omnitech Electronics, Inc.) was used to assess locomotor activity as previously described (Toth et al., 2018: Slosky L M, et al. (2020)). Here, animal movement is determined by the breaking of gridded photocell beams.
(§3) The effect of SBI-553 on cocaine self-administration was both cocaine-dose dependent and SBI-553-dose dependent. […] In the presence of β-arrestin2, SBI-553 reduced activity in mice. A 12 mg/kg (i.p.) dose of SBI-553 decreased both cocaine-and methamphetamine-induced hyperlocomotion in wild-type (WT) mice on a C57BL/6J background (FIG. 7B-FIG. 7C). […] Conversely, a significant reduction in locomotion was absent in global β-arrestin2 KO mice (Slosky L M, et al. (2020) Cell. 181(6):1364-1379e14).

[7] = Core body temperature measurement; assay type: in vivo, C57BL/6J mice
Method: Core body temperatures were recorded from age-matched male and female C57BL/6J mice prior to treatment (Time 0) and 30 min, 60 min, 120 min, and 300 min post-treatment using a rectal probe thermometer for mice (Thermalert Model TH-8, Physitemp Instruments, Inc., Clifton, NJ). On three days of the week leading up to the study, animals were handled and temperatures were taken to acclimate the animals to the procedure.
as §1

[8] = Intravenous cocaine self-administration; assay type: in vivo, mice; conditions: 2, 6 or 12 mg/kg i.p.; cocaine 0.1-1 mg/kg/infusion
Method: as §2, §3

[9] = mouse, in vivo; cited from earlier work
lamina IIo neurons = system: lamina IIo neurons; parameters: dose or concentration left out as unconfirmed; conditions: slices of PTX-treated mice
[10] = brain, 30 mg/kg, 30 mpk po (pa [sic]), 1 h, read-out: brain:plasma @ 1 h
[11] = plasma, 30 mg/kg, 5 mpk iv and 30 mpk po

With `COc1ccccc1C1CCN(c2nc(C3(F)CC3)nc3ccc(N(C)CCO)cc23)CC1` [SBI-553] the CIp (Pharmacokinetics in rat; 5 mpk iv (printed tv)) was 81 mL/min/kg, the Vd (Pharmacokinetics in rat; 5 mpk iv (printed tv)) was 7.02 L/kg and the Cmax (Pharmacokinetics in rat; 30 mpk po (pa [sic])) was 3482 ng/mL. For the same molecule, the T2/2 (Pharmacokinetics in rat; 30 mpk po (pa [sic])) was 2.23 h, the Kp at 1 h (Pharmacokinetics in rat; [10]) was 0.98 and the bioavailability (Pharmacokinetics in rat; [11]) was 48%. For the same molecule, the AUC (Pharmacokinetics in rat; route not marked) was 2693 ng·h/mL, the “Hemodynamic parameters versus vehicle” value [1] was “no differences” and the “Breathing frequency or tidal volume” value ([2]; on its own) was “had no effect”. The “Reduction in breathing frequency or tidal volume produced by morphine” value ([2]; with morphine) was “did not exacerbate”, the “Rotarod testing versus vehicle” value [3] was “no significant difference” and the CIp ([4]; 5 mpk iv (printed tv)) was 44.8 mL/min/kg. For the same molecule, the Vd ([4]; 5 mpk iv (printed tv)) was 6.16 L/kg, the Cmax ([4]; 30 mpk po (pa [sic])) was 1460 ng/mL and the T2/2 ([4]; 30 mpk po (pa [sic])) was 5.28 h. For the same molecule, the Kp at 1 h [4, 10] was 54, the bioavailability [4, 11] was 45% and the AUC ([4]; route not marked) was 4824 ng·h/mL. The “Duration of analgesic effect” value [5] was “more than 4.5 hr”, the “Time after injection at which analgesic effect was observed” value [5] was 2 h and the “Plantar incision-induced mechanical allodynia” value ([5]; Arrb2 KO mice) was “not”. For the same molecule, the “Plantar incision-induced mechanical allodynia” value ([5]; WT mice) was “significantly reduced”, the Cocaine-induced hyperlocomotion ([6]; cocaine 30 mg/kg i.p.) was “decreased” and the Methamphetamine-induced hyperlocomotion ([6]; methamphetamine 2 mg/kg i.p.) was “decreased”. The Core body temperature ([7]; 2-30 mg/kg, i.p.) was “no effect”, the “Reversal of PD149163-associated decrease in body temperature” value ([7]; pretreatment p.o. 30 min prior to PD149163 (i.p.)) was “dose-dependently reversed” and the Cocaine self-administration [8] was “maintenance intake reduction”. For the same molecule, the “Methamphetamine conditioned place preference” value [9] was “reduced” and the “Excitatory synaptic transmission (sEPSCs) in lamina IIo neurons” value (lamina IIo neurons) was “significantly suppressed”.
